The test concerns P388 leukemia ip, CD2F1 mice, survival T/C. Nature of the test: NCI In Vivo Anticancer Drug Screen. Data for tumor model P388 Leukemia (intraperitoneal) in CD2F1 (CDF1) mice. As to conditions: endpoint: median survival time, higher = longer survival. In a few lines:
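Mice carrying the transplanted tumor received test compound or vehicle. Survival was recorded in each group, and the value is the treated-group measurement divided by that of the vehicle-treated control group.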

Where [1] appears, read: dose: 50.0 mg/kg/injection, schedule: Q01DX005 (ip), vehicle: Klucel (hydroxypropylcellulose) (HPC).
The mark [2] stands for this setting: dose: 100.0 mg/kg/injection, schedule: Q01DX005 (ip), vehicle: Klucel (hydroxypropylcellulose) (HPC).
The mark [3] stands for this setting: dose: 200.0 mg/kg/injection, schedule: Q01DX005 (ip), vehicle: Klucel (hydroxypropylcellulose) (HPC).
[4] abbreviates: dose: 50.0 mg/kg/injection, schedule: Q01DX005 (ip), vehicle: saline with Tween-80.
Where [5] appears, read: dose: 100.0 mg/kg/injection, schedule: Q01DX005 (ip), vehicle: saline with Tween-80.
[6] abbreviates: dose: 200.0 mg/kg/injection, schedule: Q01DX005 (ip), vehicle: saline with Tween-80.
[7] abbreviates: dose: 60.0 mg/kg/injection, schedule: Q01DX005 (ip), vehicle: saline with Tween-80.
Where [8] appears, read: dose: 120.0 mg/kg/injection, schedule: Q01DX005 (ip), vehicle: saline with Tween-80.
Where [9] appears, read: dose: 50.0 mg/kg/injection, schedule: Q01DX009 (ip), vehicle: saline with Tween-80.
Setting [10] is: dose: 100.0 mg/kg/injection, schedule: Q01DX009 (ip), vehicle: saline with Tween-80.
[11] abbreviates: dose: 50.0 mg/kg/injection, schedule: Q01DX009 (ip), vehicle: saline.
Setting [12] is: dose: 100.0 mg/kg/injection, schedule: Q01DX009 (ip), vehicle: saline.
The mark [13] stands for this setting: dose: 200.0 mg/kg/injection, schedule: Q01DX009 (ip), vehicle: saline.
[14] abbreviates: dose: 100.0 mg/kg/injection, schedule: Q01DX001 (ip), vehicle: saline with Tween-80.
[15] abbreviates: dose: 200.0 mg/kg/injection, schedule: Q01DX001 (ip), vehicle: saline with Tween-80.
Where [16] appears, read: dose: 400.0 mg/kg/injection, schedule: Q01DX001 (ip), vehicle: saline with Tween-80.
[17] abbreviates: dose: 12.5 mg/kg/injection, schedule: Q01DX009 (ip), vehicle: distilled water + Tween-80.
[18] abbreviates: dose: 25.0 mg/kg/injection, schedule: Q01DX009 (ip), vehicle: distilled water + Tween-80.
Where [19] appears, read: dose: 50.0 mg/kg/injection, schedule: Q01DX009 (ip), vehicle: distilled water + Tween-80.

Several values for one entry are separate records, joined by “and”; a condition that tells them apart may be missing. Equal values may be shown once. Toxic doses and inconclusive results are not listed.

On to `COc1cccc(/C=C\C(=O)c2ccccc(=O)c2O)c1OC`, for which the T/C (dose: 25.0 mg/kg/injection, schedule: Q01DX005 (ip), vehicle: Klucel (hydroxypropylcellulose) (HPC)) is 106 % of control; the T/C under setting [1] was 101 % of control; the T/C under setting [2] was 114 % of control; the T/C under setting [3] was 107 % of control.

In the case of `CC(=O)C1C(C)C(C(C)=O)N2C1SC1CCOC12C` (stereo unspecified), the T/C is 106 % of control (dose: 10.0 mg/kg/injection, schedule: Q01DX001 (ip), vehicle: suspension in saline); 105 % of control (dose: 20.0 mg/kg/injection, schedule: Q01DX001 (ip), vehicle: suspension in saline); 101 % of control (dose: 40.0 mg/kg/injection, schedule: Q01DX001 (ip), vehicle: suspension in saline); 102 % of control (dose: 80.0 mg/kg/injection, schedule: Q01DX001 (ip), vehicle: suspension in saline).

As for `C/C(N=NC(=S)N1CCCCCC1)=C1\C=CC=CN1O`, the T/C by setting is: under setting [4], 106 % of control; under setting [5], 108 % of control; under setting [6], 110 % of control.

On to `CN(C)C(C#C[Si](C)(C)C)CO` (stereo unspecified), for which the T/C was 104 % of control (dose: 100.0 mg/kg/injection, schedule: Q04DX003 (ip), vehicle: saline); 100 % of control (dose: 200.0 mg/kg/injection, schedule: Q04DX003 (ip), vehicle: saline); 97 % of control (dose: 400.0 mg/kg/injection, schedule: Q04DX003 (ip), vehicle: saline).

As for `O=NNc1ccc(F)cn1`, the T/C was 117 % of control (dose: 3.12 mg/kg/injection, schedule: Q01DX009 (ip), vehicle: water); 153 % of control (dose: 12.5 mg/kg/injection, schedule: Q01DX009 (ip), vehicle: water); 162 % of control and 166 % of control (dose: 25.0 mg/kg/injection, schedule: Q01DX009 (ip), vehicle: water); 99 % of control (dose: 50.0 mg/kg/injection, schedule: Q01DX009 (ip), vehicle: water).

For the molecule `CNC(=O)C(C(=O)NC)n1cnc(C(=O)OC)c1O`, the T/C (dose: 60.0 mg/kg/injection, schedule: Q01DX005 (ip), vehicle: water) was 108 % of control; the T/C (dose: 120.0 mg/kg/injection, schedule: Q01DX005 (ip), vehicle: water) was 107 % of control; the T/C (dose: 240.0 mg/kg/injection, schedule: Q01DX005 (ip), vehicle: water) was 107 % of control.

Turning to `C=C(NC(C)=O)C(=O)CCC(N)=O`, the T/C runs as follows: (dose: 5.0 mg/kg/injection, schedule: Q01DX009 (ip), vehicle: saline sonified) 109 % of control; (dose: 10.0 mg/kg/injection, schedule: Q01DX009 (ip), vehicle: saline sonified) 109 % of control; (dose: 20.0 mg/kg/injection, schedule: Q01DX009 (ip), vehicle: saline sonified) 104 % of control.

As to `O=C(/C=C/c1ccccc1)Cc1nc2nnc(NC(=O)Nc3ccc(Cl)cc3)n2[nH]c1=O`, the T/C is, setting by setting: under setting [7], 99 % of control; under setting [8], 94 % of control; (dose: 240.0 mg/kg/injection, schedule: Q01DX005 (ip), vehicle: saline with Tween-80) 102 % of control.

As to `O=C1NC(c2ccccc2)C(c2ccccc2)(c2ccccc2)O1` (stereo unspecified), the T/C is 93 % of control under setting [9] and 86 % of control under setting [10].

Take `O=C(O)c1ccc2c(=O)c(C(=O)O)c[nH]c2c1`: the T/C is, setting by setting: under setting [11], 100 % of control; under setting [12], 96 % of control; under setting [13], 103 % of control.

Turning to `CC(=O)OC1CC(c2ccccc2)=NO1` (stereo unspecified), the T/C is 106 % of control (dose: 60.0 mg/kg/injection, schedule: Q01DX005 (ip), vehicle: Klucel (hydroxypropylcellulose) (HPC)); 95 % of control (dose: 120.0 mg/kg/injection, schedule: Q01DX005 (ip), vehicle: Klucel (hydroxypropylcellulose) (HPC)); 103 % of control (dose: 240.0 mg/kg/injection, schedule: Q01DX005 (ip), vehicle: Klucel (hydroxypropylcellulose) (HPC)).

`N#Cc1ncn(Cc2ccccc2)c1N`: the T/C (dose: 15.0 mg/kg/injection, schedule: Q01DX005 (ip), vehicle: saline with Tween-80) was 95 % of control; the T/C (dose: 30.0 mg/kg/injection, schedule: Q01DX005 (ip), vehicle: saline with Tween-80) was 101 % of control; the T/C under setting [7] was 105 % of control and 109 % of control.

`C[Si](C)(C)O[C@@H]1CCCC1NCC#N` (stereo partly specified): the T/C was 101 % of control under setting [4], 101 % of control under setting [5] and 92 % of control under setting [6].

For `CS(=O)(=O)OCC(Cc1ccccc1)N1C(=O)c2ccccc2C1=O` (stereo unspecified), the T/C is, setting by setting: under setting [14], 101 % of control; under setting [15], 100 % of control; under setting [16], 89 % of control.

Take `CCCn1c2nc(=O)n(C)c(=O)c-2cc2ccccc21`: the T/C was 105 % of control (dose: 10.0 mg/kg/injection, schedule: Q01DX009 (ip), vehicle: saline with Tween-80); 116 % of control (dose: 20.0 mg/kg/injection, schedule: Q01DX009 (ip), vehicle: saline with Tween-80); 111 % of control (dose: 40.0 mg/kg/injection, schedule: Q01DX009 (ip), vehicle: saline with Tween-80).

With `COc1cc(CSc2ccccc2)cc(OC)c1N`, the T/C was 95 % of control under setting [1], 100 % of control under setting [2] and 99 % of control under setting [3].

As to `O=c1c2c([nH]c3c1ccc1[nH]c4c(c(=O)c13)CCCC4)CCCC2`, the T/C under setting [9] was 90 % of control; the T/C under setting [10] was 91 % of control; the T/C (dose: 200.0 mg/kg/injection, schedule: Q01DX009 (ip), vehicle: saline with Tween-80) was 97 % of control.

For `O=P(c1ccccc1)(c1ccccc1)C(O)c1ccc(F)cc1` (stereo unspecified), the T/C was 89 % of control (dose: 50.0 mg/kg/injection, schedule: Q01DX009 (ip), vehicle: Klucel (hydroxypropylcellulose) (HPC)); 100 % of control (dose: 100.0 mg/kg/injection, schedule: Q01DX009 (ip), vehicle: Klucel (hydroxypropylcellulose) (HPC)); 93 % of control (dose: 200.0 mg/kg/injection, schedule: Q01DX009 (ip), vehicle: Klucel (hydroxypropylcellulose) (HPC)).

On to `CC(=O)N1c2ccccc2Sc2ccc3ccc(C(=O)CCl)cc3c21`, for which the T/C under setting [10] was 115 % of control.

Regarding `CCCSCN(CC)CC`, the T/C under setting [11] was 95 % of control, the T/C under setting [12] is 90 % of control and the T/C under setting [13] is 114 % of control.

In the case of `CCOc1cccc(C=N)c1O`, the T/C under setting [7] is 111 % of control and the T/C under setting [8] is 105 % of control.

In the case of `COc1cccc2c1C(=O)c1c(O)c3c(c(O)c1C2=O)CC(O)(C(=O)COC(C)C)CC3O` (stereo unspecified), the T/C (dose: 1.56 mg/kg/injection, schedule: Q01DX009 (ip), vehicle: other) is 100 % of control; the T/C (dose: 3.13 mg/kg/injection, schedule: Q01DX009 (ip), vehicle: other) is 100 % of control; the T/C (dose: 6.25 mg/kg/injection, schedule: Q01DX009 (ip), vehicle: other) was 100 % of control; the T/C (dose: 12.5 mg/kg/injection, schedule: Q01DX009 (ip), vehicle: other) is 103 % of control; the T/C (dose: 25.0 mg/kg/injection, schedule: Q01DX009 (ip), vehicle: other) was 103 % of control.

Consider `COC(=O)c1cc(OC)nc(OC)n1`, for which the T/C is 108 % of control under setting [17]; 96 % of control under setting [18]; 105 % of control under setting [19]; 99 % of control (dose: 100.0 mg/kg/injection, schedule: Q01DX009 (ip), vehicle: distilled water + Tween-80).

As for `O=C1NC(=O)C2C3C=CC(C12)C1C2C(=O)NC(=O)C2C31` (stereo unspecified), the T/C under setting [17] was 116 % of control; the T/C under setting [18] was 153 % of control; the T/C (dose: 30.0 mg/kg/injection, schedule: Q01DX009 (ip), vehicle: water) is 163 % of control; the T/C under setting [19] was 193 % of control; the T/C under setting [14] is 96 % of control; the T/C under setting [15] is 109 % of control. Also, the T/C under setting [16] was 119 % of control.

As for `COC(=O)C1(C(=O)OC)ON1C(C)(C)C` (stereo unspecified), the T/C is 100 % of control under setting [1], 96 % of control under setting [2] and 97 % of control under setting [3].
